Read-outs that look alike come from different tables or passages of the source.
Legend:
[1] = tested on: murine mammary adenocarcinoma MA13/C; settings: for highest non-toxic total dose, component alone: single agent IV, Taxotere d14, 23, flavopiridol d14-17, 20-23
[2] = tested on: mammary adenocarcinoma MA 13/C; settings: for % bwl (nadir): mouse, in vivo, iv; for HNTD (DT), total dose / HNTD (highest non-toxic dose), per dose: single agent IV, days 15, 21
Method: A product is considered to be active if log10 cell kill is greater than or equal to 0.7. A product is considered to be very active if log10 cell kill is greater than 2.8.
The animals subjected to the experiment, generally mice, are subcutaneously grafted bilaterally with 30 to 60 mg of a tumor fragment on day zero. The animals bearing tumors are mixed before being subjected to the various treatments and controls. In the case of treatment of advanced tumors, tumors are allowed to develop to the desired size, animals having insufficiently developed tumors being eliminated. The selected animals are distributed at random to undergo the treatments and controls. […] Chemotherapy generally begins from 3 to 22 days after grafting, depending on the type of tumor. The animals are observed every day. The different animal groups are weighed 3 or 4 times a week until the maximum weight loss is attained, and the groups are then weighed at least once a week until the end of the trial.
The tumors are measured 2 or 3 times a week until the tumor reaches approximately 2 g, or until the animal dies, if this occurs before the tumor reaches 2 g. The animals are autopsied after death.

[3] = Flavo alone IV at HNTD 2.9 mg/kg/dose (total 23.2 mg/kg)
[4] = Flavopiridol alone IV 1.75 mg/kg/dose d14-17, 20-23 (total 14)
[5] = Flavopiridol alone IV 2.9 mg/kg/dose d14-17, 20-23 (total 23.2)
[6] = Flavopiridol alone IV 4.8 mg/kg/dose d14-17, 20-23 (total 38.4)
[7] = Taxotere alone IV 48.1 mg/kg/dose d14, 23 (total 96.8)

Compound: CN1CC[C@H](c2c(O)cc(O)c3c(=O)cc(-c4ccccc4Cl)oc23)[C@H](O)C1 [Flavopiridol, cis-5,7-dihydroxy-2-(2-chlorophenyl)-8-[4-(3-hydroxy-1-methyl)-piperidinyl]-1-benzopyran-4-one]
- activity rating [1, 3]: inactive
- log cell kill net [1, 3]: −0.4
- highest non-toxic dose (HNTD), per dose ([1]; Flavo alone IV once a day, day 14 to 17 and 20-23): 2.9 mg/kg/dose
- CR (complete response) [1, 4]: 0/6
- lck Gross [1, 4]: 0.0
- % bwl (nadir) ([1]; Flavopiridol alone IV 1.75 mg/kg/dose d14-17, 20-23 (total 14), day 24): +10 (24) %
- Comments (toxicity level of the dose) [1, 5]: HNTD
- lck Gross [1, 5]: 1.0
- CR (complete response) ([1]; Flavopiridol alone IV 2.9 mg/kg/dose d14-17, 20-23 (total 23.2), 2.9 mg/kg): 0/6
- CR (complete response) ([1]; Flavopiridol alone IV 2.9 mg/kg/dose d14-17, 20-23 (total 23.2), listed as Flavo, 2.9 mg/kg): no complete regression
- % bwl (nadir) ([1]; Flavopiridol alone IV 2.9 mg/kg/dose d14-17, 20-23 (total 23.2), nadir day 18): 3 (18) %
- % bwl (nadir) [1, 6]: >20%
- Comments: DD [1, 6]: 4/5 DD
- highest non-toxic total dose, component alone [1]: 23.2 mg/kg
- lck (log10 cell kill) (MA13/C; Flavopiridol alone po 2.7 mg/kg days 14-18, 21-25 (total 27)): 0.1
- % bwl (nadir) (MA13/C; mouse, in vivo, po, 2.7 mg/kg): 11.6%
- lck (log10 cell kill) ([2]; Flavopiridol alone IV 6.0 mg/kg days 15, 21 (total 12.0)): 0.4
- CR (complete response) ([2]; Flavopiridol alone IV 6.0 mg/kg days 15, 21 (total 12.0), 6 mg/kg): 0/5 CR
- CR (complete response) ([2]; Flavopiridol alone IV 6.0 mg/kg days 15, 21 (total 12.0), listed as flavopiridol, 6 mg/kg): no compete responses in the 5 mice tested
- % bwl (nadir) ([2]; 6 mg/kg): 6 (16) %
- HNTD (DT), total dose [2]: (12.0) mg/kg
- HNTD (highest non-toxic dose), per dose [2]: 6.0 mg/kg

Compound: CC(=O)O[C@@]12CO[C@@H]1C[C@H](O)[C@@]1(C)C(=O)[C@H](O)C3=C(C)[C@@H](OC(=O)[C@H](O)[C@@H](NC(=O)OC(C)(C)C)c4ccccc4)C[C@@](O)([C@@H](OC(=O)c4ccccc4)[C@H]21)C3(C)C [Taxotere ®, docetaxel]
- CR (complete response) [1, 7]: 6/6
- Comments (toxicity level of the dose) [1, 7]: HNTD
- lck Gross [1, 7]: 4.4
- % bwl (nadir) ([1]; Taxotere alone IV 48.1 mg/kg/dose d14, 23 (total 96.8), nadir day 28): 8 (28) %
- Comments: DD ([1]; Taxotere alone IV 78.1 mg/kg/dose d14, 23 (total 156.2)): 2/6 DD
- % bwl (nadir) ([1]; Taxotere alone IV 78.1 mg/kg/dose d14, 23 (total 156.2), nadir day 29): 20 (29) %
- log cell kill net ([1]; docetaxel alone at HNTD 48.1 mg/kg/injection (total 96.8 mg/kg)): 3
- HNTD, per injection ([1]; docetaxel alone, days 14 and 23): 48.1 mg/kg/injection
- highest non-toxic total dose, component alone [1]: 96.8 mg/kg
- lck (log10 cell kill) (MA13/C; Taxotere alone IV 30 mg/kg days 14, 25 (total 60)): 0.9
- HNTD (DT), total dose (MA13/C; mouse, in vivo): (60) mg/kg
- HNTD, per dose (MA13/C; mouse, in vivo): 30 mg/kg
- % bwl (nadir) (MA13/C; mouse, in vivo, iv, 30 mg/kg): 3.6%
- Comments (toxicity level of the dose) (MA13/C; mouse, in vivo, iv, 30 mg/kg): HNTD
- lck (log10 cell kill) ([2]; Taxotere alone IV 30.0 mg/kg days 15, 21 (total 60.0)): 4.7
- CR (complete response) ([2]; Taxotere alone IV 30.0 mg/kg days 15, 21 (total 60.0), 30 mg/kg): 5/5 CR
- CR (complete response) ([2]; Taxotere alone IV 30.0 mg/kg days 15, 21 (total 60.0), listed as Taxotere®, 30 mg/kg): complete response in all 5 of the mice
- % bwl (nadir) ([2]; 30 mg/kg): 8 (27) %
- HNTD (DT), total dose [2]: (60.0) mg/kg
- HNTD (highest non-toxic dose), per dose [2]: 30.0 mg/kg

Source: patent US20060128640A1 (priority 2001, published 2006)
